Data set [1] addresses Sodium-dependent noradrenaline transporter (Homo sapiens) (UniProt P23975). The data set is described as follows: Displacement of [3H]-nisoxetine from human NET expressed in CHO cells at 10^-6 M after 120 mins by scintillation counting method relative to control. Format: cell-based. Background: Loss of bound radioactivity is the signal in a displacement assay; it reports binding, not function.

Data set [2] is described as follows: Tmax in Wistar rat brain at 9 mg/kg per os administered as a single dose by LC-MS/MS analysis. Format: ADME, organism-based. The settings on record: po.
Data set [3] has as its target D(4) dopamine receptor (Homo sapiens) (UniProt P21917). The data set is described as follows: Displacement of [3H]-methyl-spiperone from human dopamine D4 receptor expressed in CHO cells at 10^-6 M after 60 mins by scintillation counting method relative to control. Format: cell-based.
Data set [4] concerns the target 5-hydroxytryptamine receptor 1D (Rattus norvegicus) (UniProt P28565). The data set is described as follows: Antagonist activity at rat 5-HT1DR expressed in CHO cells assessed as inhibition of serotonin-induced response by cellular dielectric spectroscopy. Format: functional, cell-based.
Data set [5] concerns the target Beta-2 adrenergic receptor (Homo sapiens) (UniProt P07550). The data set is described as follows: Displacement of CGP 12177 from human adrenergic beta2 receptor expressed in CHO cells at 10^-6 M after 60 mins by scintillation counting method relative to contro. Format: cell-based.
Data set [6] is described as follows: Cmax in Wistar rat plasma at 9 mg/kg per os administered as a single dose by LC-MS/MS analysis. More on the design: dose 9 mg/kg. The note with it: po. In kind it is ADME, organism-based.
Data set [7] addresses T1, Alpha-1A adrenergic receptor (Homo sapiens) (UniProt P35348).
T1 sequence (whole entry): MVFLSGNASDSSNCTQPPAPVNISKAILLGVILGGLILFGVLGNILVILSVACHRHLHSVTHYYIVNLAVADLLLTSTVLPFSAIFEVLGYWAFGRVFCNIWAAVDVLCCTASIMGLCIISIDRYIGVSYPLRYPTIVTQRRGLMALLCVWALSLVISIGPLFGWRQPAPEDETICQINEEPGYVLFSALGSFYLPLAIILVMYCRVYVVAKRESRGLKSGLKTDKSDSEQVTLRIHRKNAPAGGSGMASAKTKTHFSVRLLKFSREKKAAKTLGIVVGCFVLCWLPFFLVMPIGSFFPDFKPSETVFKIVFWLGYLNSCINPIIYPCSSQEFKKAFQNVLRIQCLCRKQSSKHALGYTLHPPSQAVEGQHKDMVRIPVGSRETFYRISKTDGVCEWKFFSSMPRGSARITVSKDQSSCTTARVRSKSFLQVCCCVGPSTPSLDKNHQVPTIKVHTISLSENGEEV
The data set can be described thus: Displacement of [3H]-prazosin from human adrenergic alpha1A receptor expressed in CHO cells at 10^-6 M after 60 mins by scintillation counting method relative to control. In kind it is cell-based.

For data set [8], the target named is T2, 5-hydroxytryptamine receptor 1A (Homo sapiens, UniProt P08908).
T2 sequence (P08908 whole entry): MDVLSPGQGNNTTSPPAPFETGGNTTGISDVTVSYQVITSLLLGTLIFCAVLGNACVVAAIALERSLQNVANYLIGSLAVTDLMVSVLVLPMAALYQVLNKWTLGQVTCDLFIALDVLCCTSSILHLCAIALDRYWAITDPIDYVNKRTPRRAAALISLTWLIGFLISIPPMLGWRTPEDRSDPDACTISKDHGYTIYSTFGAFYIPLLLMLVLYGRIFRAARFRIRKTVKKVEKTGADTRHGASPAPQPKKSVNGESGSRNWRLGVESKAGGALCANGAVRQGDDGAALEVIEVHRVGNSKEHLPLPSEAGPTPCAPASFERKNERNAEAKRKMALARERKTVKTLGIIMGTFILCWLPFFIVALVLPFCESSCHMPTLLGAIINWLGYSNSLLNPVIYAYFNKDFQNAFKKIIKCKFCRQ
The data set is described as follows: Displacement of [3H]-WAY100635 from recombinant full-length human 5-HT1AR expressed in CHO cells after 120 mins by scintillation counting method. Format: cell-based.

In data set [9] the target is 5-hydroxytryptamine receptor 1D (Rattus norvegicus) (UniProt P28565). The data set can be described thus: Displacement of [3H]-serotonin from rat 5-HT1DR expressed in CHO cells at 10^-6 M after 60 mins by scintillation counting analysis relative to control. Format: cell-based.
The target in data set [10] is Beta-1 adrenergic receptor (Homo sapiens) (UniProt P08588). The data set is described as follows: Displacement of [3H]-CGP 12177 from human adrenergic beta1 receptor expressed in HEK293 cells at 10^-6 M after 60 mins by scintillation counting method relative to control. Format: cell-based.
The target of data set [11] is T3, 5-hydroxytryptamine receptor 7 (Homo sapiens, UniProt P34969). The data set is described as follows: Antagonist activity at human 5-HT7R expressed in human DLD1 cells assessed as inhibition of serotonin-induced cAMP accumulation by chemiluminescence-based assay. In kind it is functional, cell-based. In general terms: Changes in cAMP serve as a functional read-out for many G protein-coupled receptors.

The target in data set [12] is D(3) dopamine receptor (Homo sapiens) (UniProt P35462). The data set is described as follows: Antagonist activity at human D3R expressed in CHO-K1 cells assessed as inhibition of […] cAMP accumulation by chemiluminescence-based assay. Format: functional, cell-based.
In data set [13] the target is Sodium-dependent serotonin transporter (Homo sapiens, UniProt P31645). The data set is described as follows: Displacement of [3H]imipramine from recombinant human SERT expressed in CHO cells after 60 mins by scintillation counting method. Format: cell-based.
Data set [14] deals with T4, 5-hydroxytryptamine receptor 2A (Homo sapiens, UniProt P28223). The data set is described as follows: Displacement of [3H]ketanserin from human recombinant 5-HT2A receptor at 10^-6 M after 60 mins by scintillation counting analysis relative to control.
The target in data set [15] is T1, Alpha-1A adrenergic receptor (Homo sapiens). The data set is described as follows: Antagonist activity at human adrenergic alpha1A receptor expressed in CHO cells assessed as inhibition of epinephrine-induced calcium flux by fluorimetric method. In kind it is functional, cell-based. For orientation: A change in cytosolic calcium serves as a functional read-out for many receptors and channels.

The target in data set [16] is T4, 5-hydroxytryptamine receptor 2A. The data set is described as follows: Antagonist activity at human 5-HT2AR expressed in HEK293 cells assessed as inhibition of serotonin-induced IP1 accumulation by chemiluminescence-based assay. In kind it is functional, cell-based.
Data set [17] has as its target 5-hydroxytryptamine receptor 1B (Rattus norvegicus) (UniProt P28564). The data set is described as follows: Displacement of [125I]-CYP from 5-HT1BR in rat cerebral cortex at 10^-6 M after 120 mins by scintillation counting analysis relative to control.
In data set [18] the target is 5-hydroxytryptamine receptor 6 (Homo sapiens, UniProt P50406). The data set can be described thus: Antagonist activity at human 5-HT6R expressed in CHO-K1 cells assessed as inhibition of serotonin-induced cAMP accumulation at 10^-6 M after 30 mins by chemiluminescence-based assay. Format: functional, cell-based.
The target in data set [19] is T3, 5-hydroxytryptamine receptor 7. The data set is described as follows: Antagonist activity at human 5-HT7R expressed in CHO-K1 cells assessed as inhibition of serotonin-induced cAMP accumulation at 10^-6 M after 30 mins by chemiluminescence-based assay. In kind it is functional, cell-based.
Data set [20] has as its target D(2) dopamine receptor (Homo sapiens) (UniProt P14416). The data set can be described thus: Antagonist activity at human D2LR expressed in CHO-K1 cells assessed as inhibition of dopamine-induced calcium flux at 10^-6 M by fluorimetric method. In kind it is functional, cell-based.

Chain of 5-hydroxytryptamine receptor 1D (Rattus norvegicus) (P28565 whole entry): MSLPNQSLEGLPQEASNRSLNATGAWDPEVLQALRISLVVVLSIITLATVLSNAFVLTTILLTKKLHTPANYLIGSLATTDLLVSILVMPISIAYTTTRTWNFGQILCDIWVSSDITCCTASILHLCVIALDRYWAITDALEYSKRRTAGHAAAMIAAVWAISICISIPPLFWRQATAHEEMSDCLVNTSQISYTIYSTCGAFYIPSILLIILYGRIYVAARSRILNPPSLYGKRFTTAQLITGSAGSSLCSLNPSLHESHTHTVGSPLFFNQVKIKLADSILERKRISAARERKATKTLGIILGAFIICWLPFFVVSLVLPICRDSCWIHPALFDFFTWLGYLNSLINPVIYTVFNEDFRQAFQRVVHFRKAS
T4 sequence (P28223 whole entry): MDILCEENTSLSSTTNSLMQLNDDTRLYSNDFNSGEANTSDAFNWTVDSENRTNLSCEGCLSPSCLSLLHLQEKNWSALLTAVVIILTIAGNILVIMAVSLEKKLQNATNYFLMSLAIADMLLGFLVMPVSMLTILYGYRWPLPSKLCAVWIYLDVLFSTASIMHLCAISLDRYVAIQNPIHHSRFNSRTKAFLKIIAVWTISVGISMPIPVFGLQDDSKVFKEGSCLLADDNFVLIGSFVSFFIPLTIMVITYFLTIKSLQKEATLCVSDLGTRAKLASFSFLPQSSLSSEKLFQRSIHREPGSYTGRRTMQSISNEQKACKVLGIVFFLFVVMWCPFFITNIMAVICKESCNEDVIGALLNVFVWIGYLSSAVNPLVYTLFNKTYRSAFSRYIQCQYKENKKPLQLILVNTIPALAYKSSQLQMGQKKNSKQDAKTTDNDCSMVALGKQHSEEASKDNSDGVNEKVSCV
T3 sequence (P34969 whole entry): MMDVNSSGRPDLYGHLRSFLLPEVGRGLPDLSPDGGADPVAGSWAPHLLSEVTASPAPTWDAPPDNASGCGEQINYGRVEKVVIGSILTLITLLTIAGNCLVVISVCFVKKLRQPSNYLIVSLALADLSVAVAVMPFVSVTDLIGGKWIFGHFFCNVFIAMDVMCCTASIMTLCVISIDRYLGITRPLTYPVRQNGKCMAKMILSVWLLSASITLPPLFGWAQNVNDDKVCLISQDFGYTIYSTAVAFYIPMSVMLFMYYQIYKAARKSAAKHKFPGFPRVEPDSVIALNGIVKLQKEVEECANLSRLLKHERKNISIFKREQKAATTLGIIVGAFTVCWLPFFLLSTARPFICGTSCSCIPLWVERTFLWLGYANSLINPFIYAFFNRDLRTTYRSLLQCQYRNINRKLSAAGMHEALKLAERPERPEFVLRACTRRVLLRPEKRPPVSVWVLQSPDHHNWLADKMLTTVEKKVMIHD
Chain of Beta-1 adrenergic receptor (Homo sapiens) (P08588 whole entry, looked up): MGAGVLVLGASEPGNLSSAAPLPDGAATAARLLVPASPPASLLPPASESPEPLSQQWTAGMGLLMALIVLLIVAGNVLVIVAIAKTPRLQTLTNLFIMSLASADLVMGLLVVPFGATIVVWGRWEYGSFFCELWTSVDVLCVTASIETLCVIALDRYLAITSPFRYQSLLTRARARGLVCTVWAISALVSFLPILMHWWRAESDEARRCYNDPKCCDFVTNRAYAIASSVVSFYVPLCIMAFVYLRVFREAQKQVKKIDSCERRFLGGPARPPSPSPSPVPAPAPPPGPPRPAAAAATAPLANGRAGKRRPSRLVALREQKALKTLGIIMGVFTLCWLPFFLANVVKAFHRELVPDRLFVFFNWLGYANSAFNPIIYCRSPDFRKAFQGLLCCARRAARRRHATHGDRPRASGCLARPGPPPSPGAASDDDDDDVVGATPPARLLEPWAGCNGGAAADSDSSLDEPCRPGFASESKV
Chain of D(3) dopamine receptor (Homo sapiens) (P35462 whole entry): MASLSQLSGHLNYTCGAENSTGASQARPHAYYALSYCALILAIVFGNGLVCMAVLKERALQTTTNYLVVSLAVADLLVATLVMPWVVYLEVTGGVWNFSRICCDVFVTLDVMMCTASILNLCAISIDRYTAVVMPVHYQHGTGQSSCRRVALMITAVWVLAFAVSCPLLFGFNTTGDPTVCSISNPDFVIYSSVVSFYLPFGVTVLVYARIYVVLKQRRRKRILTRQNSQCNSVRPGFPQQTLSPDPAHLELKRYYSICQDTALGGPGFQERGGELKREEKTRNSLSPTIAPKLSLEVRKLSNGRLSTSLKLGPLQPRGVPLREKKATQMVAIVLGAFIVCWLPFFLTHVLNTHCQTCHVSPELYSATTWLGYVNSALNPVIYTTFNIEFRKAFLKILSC
Chain of D(2) dopamine receptor (Homo sapiens) (P14416 whole entry): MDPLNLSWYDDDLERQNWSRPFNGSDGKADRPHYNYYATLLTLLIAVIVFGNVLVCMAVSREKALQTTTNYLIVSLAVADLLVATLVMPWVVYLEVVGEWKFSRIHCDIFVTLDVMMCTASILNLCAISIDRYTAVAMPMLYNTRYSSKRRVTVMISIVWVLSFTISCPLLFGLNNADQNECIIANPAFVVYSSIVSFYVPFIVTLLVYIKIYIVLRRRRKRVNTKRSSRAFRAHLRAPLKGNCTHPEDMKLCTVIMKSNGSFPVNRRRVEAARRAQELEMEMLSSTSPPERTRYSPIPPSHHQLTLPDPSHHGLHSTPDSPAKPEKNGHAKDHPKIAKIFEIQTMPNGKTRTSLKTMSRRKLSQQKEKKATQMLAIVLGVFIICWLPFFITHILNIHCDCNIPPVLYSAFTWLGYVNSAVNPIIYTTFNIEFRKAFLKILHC
Chain of D(4) dopamine receptor (Homo sapiens) (P21917 whole entry): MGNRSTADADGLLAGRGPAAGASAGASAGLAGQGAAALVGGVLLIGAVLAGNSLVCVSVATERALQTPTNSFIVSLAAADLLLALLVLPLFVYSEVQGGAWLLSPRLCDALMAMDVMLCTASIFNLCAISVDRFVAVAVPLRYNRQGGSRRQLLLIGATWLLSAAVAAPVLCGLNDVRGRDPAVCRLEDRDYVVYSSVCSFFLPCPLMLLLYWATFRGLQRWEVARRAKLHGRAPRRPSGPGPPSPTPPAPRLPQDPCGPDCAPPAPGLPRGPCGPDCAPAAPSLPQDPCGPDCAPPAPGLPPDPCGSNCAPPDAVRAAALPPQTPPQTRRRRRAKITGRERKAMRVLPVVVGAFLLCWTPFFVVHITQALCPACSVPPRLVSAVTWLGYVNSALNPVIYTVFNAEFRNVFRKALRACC
Chain of 5-hydroxytryptamine receptor 6 (P50406 whole entry): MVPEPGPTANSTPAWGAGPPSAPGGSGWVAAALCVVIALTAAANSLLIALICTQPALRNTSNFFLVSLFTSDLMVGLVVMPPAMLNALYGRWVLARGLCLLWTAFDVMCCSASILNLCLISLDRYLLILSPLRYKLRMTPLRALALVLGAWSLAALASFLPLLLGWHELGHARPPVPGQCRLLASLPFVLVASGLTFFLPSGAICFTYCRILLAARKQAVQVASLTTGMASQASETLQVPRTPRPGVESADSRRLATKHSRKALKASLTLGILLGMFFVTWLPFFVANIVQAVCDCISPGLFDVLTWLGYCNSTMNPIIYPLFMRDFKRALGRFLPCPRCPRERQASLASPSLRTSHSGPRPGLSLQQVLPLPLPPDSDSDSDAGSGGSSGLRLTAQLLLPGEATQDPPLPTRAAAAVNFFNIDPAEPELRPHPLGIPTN
Chain of 5-hydroxytryptamine receptor 1B (Rattus norvegicus) (P28564 whole entry): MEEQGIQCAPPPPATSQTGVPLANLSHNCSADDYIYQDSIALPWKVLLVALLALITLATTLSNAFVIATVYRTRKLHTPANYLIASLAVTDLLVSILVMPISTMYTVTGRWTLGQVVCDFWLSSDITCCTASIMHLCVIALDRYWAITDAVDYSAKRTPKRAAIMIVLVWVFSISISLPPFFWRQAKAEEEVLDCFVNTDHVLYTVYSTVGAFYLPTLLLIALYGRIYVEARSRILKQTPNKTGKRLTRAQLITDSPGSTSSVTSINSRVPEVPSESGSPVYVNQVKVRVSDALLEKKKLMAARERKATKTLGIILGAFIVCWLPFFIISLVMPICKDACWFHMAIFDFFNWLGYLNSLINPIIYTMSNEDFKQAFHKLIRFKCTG
Chain of Beta-2 adrenergic receptor (Homo sapiens) (P07550 whole entry, looked up): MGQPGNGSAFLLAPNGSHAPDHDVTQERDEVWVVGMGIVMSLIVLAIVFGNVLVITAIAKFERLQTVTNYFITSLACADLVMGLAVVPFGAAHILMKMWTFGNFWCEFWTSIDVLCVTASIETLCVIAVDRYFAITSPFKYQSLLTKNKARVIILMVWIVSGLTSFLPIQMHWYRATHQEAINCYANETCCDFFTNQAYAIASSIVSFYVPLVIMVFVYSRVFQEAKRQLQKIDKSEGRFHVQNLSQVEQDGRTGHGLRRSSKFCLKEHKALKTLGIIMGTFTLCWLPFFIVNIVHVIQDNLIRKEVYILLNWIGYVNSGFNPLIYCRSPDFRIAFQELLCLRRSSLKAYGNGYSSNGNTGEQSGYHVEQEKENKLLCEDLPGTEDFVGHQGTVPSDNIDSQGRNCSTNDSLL
Chain of Sodium-dependent noradrenaline transporter (Homo sapiens) (P23975 whole entry): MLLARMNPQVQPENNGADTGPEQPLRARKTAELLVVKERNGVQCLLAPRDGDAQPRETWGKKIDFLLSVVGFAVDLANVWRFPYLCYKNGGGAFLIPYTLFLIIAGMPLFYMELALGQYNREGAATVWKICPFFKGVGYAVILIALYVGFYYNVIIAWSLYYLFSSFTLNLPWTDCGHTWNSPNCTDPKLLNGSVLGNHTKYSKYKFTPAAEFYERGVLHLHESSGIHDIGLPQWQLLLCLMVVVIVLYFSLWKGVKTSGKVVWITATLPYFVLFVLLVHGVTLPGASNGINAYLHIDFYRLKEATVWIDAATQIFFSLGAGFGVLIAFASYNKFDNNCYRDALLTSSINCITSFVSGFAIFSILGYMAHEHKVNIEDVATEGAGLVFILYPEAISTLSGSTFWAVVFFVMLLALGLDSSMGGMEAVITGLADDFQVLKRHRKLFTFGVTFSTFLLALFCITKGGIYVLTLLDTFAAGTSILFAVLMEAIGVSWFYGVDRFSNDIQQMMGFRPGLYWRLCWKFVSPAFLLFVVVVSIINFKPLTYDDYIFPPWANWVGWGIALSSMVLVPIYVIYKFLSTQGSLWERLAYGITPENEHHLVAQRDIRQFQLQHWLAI

Take `O=S(=O)(c1cncc2ccccc12)N1CCC[C@H]1CCN1CCN(c2cccc3sccc23)CC1`: the inhibition (commonly the percentage by which the read-out fell short of the control) in [1] came to 11%; in data set [3] it was 10%; in data set [5], 25%; in [7] it was 94%; in [9], 95%; in [10], 31%. For the same compound, the inhibition in data set [14] came out at 100%; in data set [17], 84%. In addition, the time of peak concentration (Tmax) – broadly, the time at which the peak concentration occurs – in [2] was 1 h. Besides, the Kb (in general, the equilibrium dissociation constant of an antagonist, usually derived from a functional assay) in [4] came to 2.8 nM; in data set [11], 3.4 nM; in [12], 92 nM; in [15], 13 nM; in data set [16], 2.3 nM. The highest concentration (Cmax) (as a rule, the highest concentration seen after dosing) in [6] worked out at 54 nM. The Ki (usually the dissociation constant of the complex between target and ligand, obtained from inhibition or displacement) in [8] came to 18 nM; in data set [13] it was 76 nM.

With `O=S(=O)(c1cncc2ccccc12)N1CCC[C@H]1CCN1CCN(c2nsc3ccccc23)CC1`, the inhibition in data set [18] stood at 23%; in data set [19], 100%; in data set [20], 100%.

Values taken from ChEMBL document CHEMBL4229332, “Novel multi-target azinesulfonamides of cyclic amine derivatives as potential antipsychotics with pro-social and pro-cognitive effects” (Eur J Med Chem, 2018).
